Experimental data from patent publication US11253593B2, “Granulated anthelmintic preparations and delivery systems” (Argenta Innovation Limited, priority 2009, dated 2022).
Read-outs that look alike come from different tables or passages of the source.

Experiments:
[1] = Stability trial post mix of reconstituted abamectin liquid concentrate; format: physicochemical
Description: The stability of the reconstituted abamectin was investigated after storage at 20-25° C. for 4 days.

in vivo = assay: in vivo
Description: A cross-over study was performed to determine the blood plasma concentrations of abamectin, oxfendazole and levamisole following oral treatment with reconstituted granule product containing these three anthelmintics.
Eight female romney sheep of similar age and body weight were used. The criteria for selection was to include animals that had not been dosed with a persistent anthelmintic formulation within 6 months of selection for the trial. Persistent anthelmintics include slow release capsules (e.g. Bionic), injectable or oral forms of moxidectin and closantel. Sheep were acclimated to the study site for 14 days before treatment.
Each sheep was randomly assigned to the treatment group and received one treatment and then the alternate treatment 21 days later.
The study procedures were as follows: • sheep were weighed using calibrated scales on Day −1 for weight ranking and allocation to treatment groups. […] Granules were weighed and added with the calculated volume of water to a 2 litre schott bottle and inverted a number of times until the granules were wetted and fully dispersed. On the morning of treatment the schott bottle was again gently inverted 3 or 4 times to ensure a homogeneous mix and approximately 100 mL was decanted from which the syringe was filled for dosing. • Treatments were administered on Day 0 and Day 21 at a dose volume of 1 ml/5 kg. Dosing was done using a 12 mL graduated syringe. Dose volume and time of administration was recorded and checked for each sheep. • Blood samples were collected before treatment, and after treatment at 0.5, 1, 2, 6, 8, 12, 15, 24 and 36 hrs.
Oxfendazole plasma levels are presented as two separate plasma metabolites: oxfendazole and fenbendazole, and the total of these two expressed as “total-oxfendazole”. All plasma metabolite units are presented as mg/kg

[2] = In-use stability, physico-chemical, of reconstituted dual active drug product; conditions: reconstituted drug product of 4.1; storage at 30 and 40° C. for 1 month
Description: The stability of reconstituted drug product was investigated after storage at 30 and 40° C. for 1 month.

[3] = In-use suspendability of reconstituted granule (oxfendazole as marker); format: physicochemical; conditions: reconstituted granule of 4.1 in water 1.1 kg/5 L
Description: The concentration of the reconstituted granule in water was 1.1 kg/5 L. Oxfendazole was chosen as a marker compound for drug suspension stability.
(Levamisole Fully Soluble)
2 h: At the top was 96 mg/g and at the bottom was 105.2 mg/g
4 h: At the top was 98 mg/g and at the bottom was 99 mg/g
4 days: At the top was 95.7 mg/g and at the bottom was 98 mg/g

[4] = Chemical and physical stability of abamectin in reconstituted triple active formulation; format: physicochemical; conditions: reconstituted with water, triple active formulation 6.1; storage at 30 and 40° C. for 1 month
Description: When reconstituted with water, the sstability of abamectin in the reconstituted triple active formulation was investigated after storage at 30 and 40° C. for 1 month.

[5] = female, Romney, sheep, in vivo, po
[6] = oral 1 ml/5 kg, pooled mean of 8 sheep, oxfendazole comparison
[7] = oral 1 ml/5 kg, pooled mean of 8 sheep, total oxfendazole comparison

Compound: OCc1ccccc1 [benzyl alcohol]
- Degradation after reconstitution [1]: some degradation

Compound: COC(=O)Nc1nc2ccc(Sc3ccccc3)cc2[nH]1 [fenbendazole]
- Tmax, plasma fenbendazole (metabolite) (in vivo; [5]): 12 h
- Cmax, plasma fenbendazole (metabolite) (in vivo; sheep, in vivo, po): 0.209 mg/kg

Compound: c1ccc([C@H]2CN3CCSC3=N2)cc1 [levamisole]
- Tmax (in vivo; [5]): 1 h
- Cmax, plasma levamisole (in vivo; sheep, in vivo, po): 1.445 mg/kg
- Chemical degradation [2]: less than 2%

Compound: COC(=O)Nc1nc2cc([S+]([O-])c3ccccc3)ccc2[nH]1 (stereo not shown) [oxfendazole]
- Oxfendazole concentration at the bottom ([3]; 2 h): 105.2 mg/g
- Oxfendazole concentration at the top ([3]; 2 h): 96 mg/g
- Oxfendazole concentration at the bottom ([3]; 4 h): 99 mg/g
- Oxfendazole concentration at the top ([3]; 4 h): 98 mg/g
- Oxfendazole concentration at the bottom ([3]; 4 days): 98 mg/g
- Oxfendazole concentration at the top ([3]; 4 days): 95.7 mg/g
- Oxfendazole concentration, initial ([3]; initial): 100 mg/g
- Cmax, plasma oxfendazole (in vivo; [6]): 0.792 mg/kg
- Tmax, plasma oxfendazole (in vivo; [6]): 15 h
- Cmax, plasma total oxfendazole (oxfendazole + fenbendazole) (in vivo; [7]): 0.984 mg/kg
- Tmax, plasma total oxfendazole (oxfendazole + fenbendazole) (in vivo; [7]): 12 h
- Chemical degradation [2]: no chemical degradation

Compound: abamectin
- Degradation of abamectin [4]: less than 2%
- Tmax, plasma abamectin (in vivo; oral 1 ml/5 kg, pooled mean of 8 sheep, abamectin comparison): 24 h
- Cmax, plasma abamectin (in vivo; oral 1 ml/5 kg, pooled mean of 8 sheep, both cross-over phases, abamectin comparison): 0.017 mg/kg
- Degradation after reconstitution ([1]; reconstituted liquid concentrate of Example 9, storage at 20-25° C. for 4 days): no degradation
